The values below come from US20240277637A1, “CAPSAICIN DERIVATIVES IN THE TREATMENT OF IDIOPATHIC PULMONARY FIBROSIS” (aXichem AB, priority 2021, published 2024).

Assay [1] has as its system human bronchial epithelial cells. Description: Clonogenic cell survival assay, bronchial epithelial cells with PDGF-AB (Example 4). The assay is classed as cell-based. The note with it: 10 ng/ml PDGF-AB, 14 days; for effect on clonogenic survival / PDGF inhibition (words): 0-10 μM. The procedure: (§1) Primary isolated human bronchial epithelial cells (NHBE) were used in this assay sourced from the American Tissue Culture Collection (Normal, Human (ATCC® BEAS-2B™)) and were cultured up to passage 6. […].
The effects of Phenylcapsaicin (2) on clonogenic survival of bronchial epithelial cells, by plating the cells with increasing numbers (102 to 5×104) in 25 cm^2 flasks were investigated. SU9518* and Phenylcapsaicin were used as positive controls. The cells were incubated with 0-10 μM (3% DMSO aqueous) of Phenylcapsaicin, SU9518, and compounds 8-12 separately in the presence of 10 ng/ml PDGF-AB (Sigma Aldrich). The flasks were returned to the incubator for 14 days, after which they were stained with crystal violet (Sigma Aldrich). The colonies were counted and the surviving percentage was determined for clonogenic survival after correcting for plating efficiency. The synthetic analogs were all calculated at 100% purity for molar concentrations.

Assay [2] shares this test system. Description: Clonogenic cell survival assay, bronchial epithelial cells with PDGF-AB (Example 3). The following applies: 10 ng/ml PDGF-AB, 14 days; for effect on clonogenic survival / PDGF inhibition (words): 0-10 μM. The assay is classed as cell-based. The procedure:
as §1
A clonogenic cell survival assay determines the ability of a cell to proliferate indefinitely. Cells were plated with increasing numbers (102 to 5×10^4) in 25 cm^2 flasks. SU9518, SU9518, a known inhibitor PDGF that has shown the ability to reduce radiation-induced fibroblast and endothelial cell activation, and phenylcapsaicin were used as positive controls. The cells were incubated with 0-10 μM (3% DMSO aqueous) of phenylcapsaicin, SU9518, and compounds 1 and 3-7 separately in the presence of 10 ng/ml PDGF-AB (Sigma Aldrich). The flasks were returned to the incubator for 14 days, after which they were stained with crystal violet (Sigma Aldrich). The colonies were counted and the surviving percentage was determined for clonogenic survival after correcting for plating efficiency.

The structures appear in SMILES notation. Entries after “also recorded” stand apart in the source; their conditions may differ.

`COc1cc(CNC(=O)CCCC/C=C/C(C)C)ccc1O` [Compound 1, capsaicin]: the “effect on clonogenic survival / PDGF inhibition (words)” value in assay [1] is reported as “no inhibition of PDGF was observed”; in assay [2], “did not show any PDGF inhibition”; in assay [2] (listed as capsaicin), “no inhibition of PDGF was observed”. Further, the “Clonogenic Survival Assay (percent)” value in assay [1] (0.10 uM) came to 97%; in assay [1] (0.50 uM), 98%; in assay [1] (1.00 uM), 95%; in assay [1] (2.00 uM), 96%; in assay [1] (5.00 uM) it was 96%; in assay [1] (10.00 uM) it was 95%. Further, the “Clonogenic Survival Assay (percent)” value in assay [2] (0.10 μM) was 97%; in assay [2] (0.50 μM) it was 97%; in assay [2] (1.00 μM) it was 95%; in assay [2] (2.00 μM), 96%; in assay [2] (5.00 μM), 96%; in assay [2] (10.00 μM), 95%. The “Clonogenic Survival Assay (percent)” value in assay [2] (10.00 μM, listed as capsaicin) is 95%.

In the case of `COc1cc(CNC(=O)CCCCC#CC2CCCCC2)ccc1O` [Compound 3], the “effect on clonogenic survival / PDGF inhibition (words)” value in assay [2] is on record as “some modest activity”; in assay [2] (listed as compound 3), “PDGF inhibition activity dropped significantly”. For the same compound, the “Clonogenic Survival Assay (percent)” value is 91% in assay [2] (0.10 μM); 83% in assay [2] (0.50 μM); 77% in assay [2] (1.00 μM); 74% in assay [2] (2.00 μM); 71% in assay [2] (5.00 μM); 73% in assay [2] (10.00 μM). Besides, the “Clonogenic Survival Assay (percent)” value in assay [2] (10.00 μM, listed as compound 3) was found to be 73%.

Turning to `COc1cc(CNC(=O)CCCCC#CC(C)(C)C)ccc1O` [Compound 4], the entries for the “effect on clonogenic survival / PDGF inhibition (words)” value in assay [2] and in assay [2] (listed as compound 4) were “did not show any PDGF inhibition” and “completely eliminated the PDGF inhibiting activity”, respectively. Moreover, the “Clonogenic Survival Assay (percent)” value in assay [2] (0.10 μM) was 97%; in assay [2] (0.50 μM), 95%; in assay [2] (1.00 μM) it was 97%; in assay [2] (2.00 μM) it was 96%; in assay [2] (5.00 μM), 91%; in assay [2] (10.00 μM), 91%. Moreover, in assay [2] (10.00 μM, listed as compound 4), the “Clonogenic Survival Assay (percent)” value is reported as 91%.

In the case of `COc1cc(CNC(=O)CCCCC#Cc2ccccc2)ccc1OC(C)=O` [Compound 5, 2-Methoxy-4-[(6-phenyl-5-hexynylcarbonylamino)methyl]phenyl acetate], the “effect on clonogenic survival / PDGF inhibition (words)” value in assay [2] is “greater PDGF inhibition than both the parent PheCap (2) and the positive control SU9518; also recorded: significant improvement in PDGF inhibiting activity”; in assay [2] (listed as compound 5) it was “significant improvement in PDGF inhibiting activity”. The “Clonogenic Survival Assay (percent)” value in assay [2] (0.10 μM) stood at 78%; in assay [2] (0.50 μM), 60%; in assay [2] (1.00 μM) it was 45%; in assay [2] (2.00 μM), 32%; in assay [2] (5.00 μM), 30%; in assay [2] (10.00 μM), 20%. The “Clonogenic Survival Assay (percent)” value in assay [2] (10.00 μM, listed as compound 5) is on record as 20%.

On to `COc1cc(CNC(=O)CCCCC#CC2CCCCC2)ccc1OC(C)=O` [Compound 6], for which the “effect on clonogenic survival / PDGF inhibition (words)” value is listed as “some modest activity” in assay [2] and “gave better results than compound 3” in assay [2] (listed as compound 6). For the same compound, the “Clonogenic Survival Assay (percent)” value turned out to be 89% in assay [2] (0.10 μM); 82% in assay [2] (0.50 μM); 76% in assay [2] (1.00 μM); 64% in assay [2] (2.00 μM); 69% in assay [2] (5.00 μM); 61% in assay [2] (10.00 μM).

Take `COc1cc(CNC(=O)CCCCC#CC(C)(C)C)ccc1OC(C)=O` [Compound 7]: the “effect on clonogenic survival / PDGF inhibition (words)” value was “did not show any PDGF inhibition” in assay [2] and “could not mediate the negative effects of the tert-butyl group” in assay [2] (listed as compound 7). The “Clonogenic Survival Assay (percent)” value in assay [2] (0.10 μM) stood at 99%; in assay [2] (0.50 μM), 96%; in assay [2] (1.00 μM) it was 96%; in assay [2] (2.00 μM), 91%; in assay [2] (5.00 μM), 94%; in assay [2] (10.00 μM) it was 93%.

As for `COc1cc(CNC(=O)CCCCCCc2ccccc2)ccc1O` [Compound 8, N-[(4-Hydroxy-3-methoxyphenyl)methyl]7-phenylheptanamide], the “effect on clonogenic survival / PDGF inhibition (words)” value in assay [1] is reported as “did not show any reduction in clonogenic cell survival”. The “Clonogenic Survival Assay (percent)” value in assay [1] (0.10 uM) was found to be 97%; in assay [1] (0.50 uM), 100%; in assay [1] (1.00 uM), 97%; in assay [1] (2.00 uM) it was 95%; in assay [1] (5.00 uM), 96%; in assay [1] (10.00 uM) it was 97%.

Regarding `C#CCCCCC(=O)NCc1ccc(O)c(OC)c1` [Compound 9], in assay [1], the “effect on clonogenic survival / PDGF inhibition (words)” value is “did not show any reduction in clonogenic cell survival”. Also, the “Clonogenic Survival Assay (percent)” value was 100% in assay [1] (0.10 uM); 97% in assay [1] (0.50 uM); 99% in assay [1] (1.00 uM); 96% in assay [1] (2.00 uM); 96% in assay [1] (5.00 uM); 99% in assay [1] (10.00 uM).

On to `COc1cc(CNC(=O)CCCCC#Cc2ccc([N+](=O)[O-])cc2)ccc1O` [Compound 10, N-[(4-Hydroxy-3-methoxyphenyl)methyl]-7-(p-nitrophenyl)-6-heptynamide], for which the “Clonogenic Survival Assay (percent)” value is reported as 73% in assay [1] (0.10 uM); 55% in assay [1] (0.50 uM); 51% in assay [1] (1.00 uM); 40% in assay [1] (2.00 uM); 41% in assay [1] (5.00 uM); 39% in assay [1] (10.00 uM).

Consider `COc1ccc(C#CCCCCC(=O)NCc2ccc(O)c(OC)c2)cc1` [Compound 11, N-[(4-Hydroxy-3-methoxyphenyl)methyl]-7-(p-methoxyphenyl)-6-heptynamide], for which the “effect on clonogenic survival / PDGF inhibition (words)” value was “higher reduction than the lead phenylcapsaicin” in assay [1] and “further improved” in assay [1] (listed as compound 11). Moreover, the “Clonogenic Survival Assay (percent)” value in assay [1] (0.10 uM) was found to be 72%; in assay [1] (0.50 uM), 57%; in assay [1] (1.00 uM), 51%; in assay [1] (2.00 uM), 33%; in assay [1] (5.00 uM), 28%; in assay [1] (10.00 uM), 21%.

For the compound `COc1cc(CNC(=O)CCCCC#Cc2cccc3ccccc23)ccc1O` [Compound 12, N-[(4-Hydroxy-3-methoxyphenyl)methyl]-7-(1-naphthyl)-6-heptynamide], the “Clonogenic Survival Assay (percent)” value in assay [1] (0.10 uM) was determined as 81%; in assay [1] (0.50 uM) it was 79%; in assay [1] (1.00 uM), 61%; in assay [1] (2.00 uM), 53%; in assay [1] (5.00 uM), 48%; in assay [1] (10.00 uM), 32%.
